Experimental data: patent publication US20250113823A1, “Arthropod Control Compositions” (priority 2022, published 2025)
Like-named read-outs stand apart in the source and are kept apart here.

Tests used:
Aedes aegypti = assay: Warm Body assay, mosquito landings on treated warm body; type: in vivo; conditions: for pest or weed control at 0.04 %: intermediate concentration of 0.04% (Table 3); for pest or weed control at 0.04 % / pest or weed control at 1 %: read-out: repellence; for pest or weed control at 0.0016 %: read-out: reduce the number of mosquito landings
How it was run: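 Compounds in ethanol (100 μL, various concentrations) were applied to a sandblasted glass dish covering the warm body (28.3 cm^2), with ethanol as control. Landings were counted automatically from 30 non-blood-fed, sugar-fed Aedes aegypti Rockefeller females aged 5–10 days, under 150 lux.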

Ixodes ricinus = assay: Warm Plate assay, tick repellence; conditions: for pest or weed control at 400 µg/mL / pest or weed control at 2000 µg/mL / pest or weed control at 10000 µg/mL: Ixodes ricinus, read-out: Percentage of repellence of ticks Ixodes ricinus on the warm plate
Anopheles gambiae = assay: Warm Body assay, mosquito landings on treated warm body; type: in vivo; conditions: Anopheles gambiae, read-out: Percentage of repellence of mosquitoes Anopheles gambiae landing on the warm body; for pest or weed control at 178 µg/mL: 0.178 mg/mL (Table 4); for pest or weed control at 267 µg/mL: 0.267 mg/mL (Table 4); for pest or weed control at 400 µg/mL: 0.4 mg/mL (Table 4); for pest or weed control at 4470 µg/mL: 4.47 mg/mL (Table 4); for pest or weed control at 10000 µg/mL: 10 mg/mL (Table 4)
Protocol: Anopheles gambiae is also a model organism as it is anthropophilic and transmits malaria.
The controlling effect according to the present invention was assessed using an adapted Warm Body assay as defined in Kröber T, Kessler S, Frei J, Bourquin M, Guerin P M. 2010. J Am Mosq Control Assoc. 26: 381-386. In this in-vitro assay the number of mosquito landing on a warm body, simulating an attractive host treated with the tested stimuli, was measured in order to assess the repellence effect.
On the sandblasted glass Petri dish covering the warm body (28.3 cm^2), 100 μL of the compounds diluted at different concentrations in ethanol was applied. The number of mosquito landing on the warm body was counted for each stimulus and pure ethanol (solvent) as control.

[1] = Aedes aegypti, 0.016 mg/mL (Table 3), read-out: Percentage of repellence of mosquitoes Aedes aegypti landing on the warm body
[2] = Aedes aegypti, 0.4 mg/mL (Table 3), read-out: Percentage of repellence of mosquitoes Aedes aegypti landing on the warm body
[3] = Aedes aegypti, 10 mg/mL (Table 3), read-out: Percentage of repellence of mosquitoes Aedes aegypti landing on the warm body
[4] = Aedes aegypti, lowest concentration of 0.0016% (Table 3)
[5] = Aedes aegypti, highest tested concentration, 1% (Table 3)
[6] = highest tested concentration, 1% (Table 3)
[7] = Aedes aegypti, read-out: Percentage of repellence of mosquitoes Aedes aegypti landing on the warm body

## COc1ccc(C(C)=O)c(O)c1 [compound 1559, 2-hydroxy-4-methoxyacetophenone]
Aedes aegypti; 0.016 mg/mL (Table 3)
  Percentage of repellence of mosquitoes Aedes aegypti landing on the warm body: 90%
Aedes aegypti; 0.4 mg/mL (Table 3)
  Percentage of repellence of mosquitoes Aedes aegypti landing on the warm body: 98%
Aedes aegypti; 10 mg/mL (Table 3)
  Percentage of repellence of mosquitoes Aedes aegypti landing on the warm body: 98%
Ixodes ricinus; 0.4 mg/mL (Table 10)
  Percentage of repellence of ticks Ixodes ricinus on the warm plate: 13.3%
Ixodes ricinus; 2 mg/mL (Table 10)
  Percentage of repellence of ticks Ixodes ricinus on the warm plate: 57.1%
Ixodes ricinus; 10 mg/mL (Table 10)
  Percentage of repellence of ticks Ixodes ricinus on the warm plate: 91.7%

## COc1ccc(OC)c(OC)c1 [compound 1201, 1,2,4-trimethoxybenzene]
Aedes aegypti; Aedes aegypti, 0.0032 mg/mL (Table 2), read-out: Percentage of repellence of mosquitoes Aedes aegypti landing on the warm body
  pest or weed control at 3.2 µg/mL: 46%
Aedes aegypti; Aedes aegypti, 0.016 mg/mL (Table 2), read-out: Percentage of repellence of mosquitoes Aedes aegypti landing on the warm body
  pest or weed control at 16 µg/mL: 82%
Aedes aegypti; Aedes aegypti, 0.0357 mg/mL (Table 2), read-out: Percentage of repellence of mosquitoes Aedes aegypti landing on the warm body
  pest or weed control at 35.7 µg/mL: 58%
Aedes aegypti; Aedes aegypti, 0.08 mg/mL (Table 2), read-out: Percentage of repellence of mosquitoes Aedes aegypti landing on the warm body
  pest or weed control at 80 µg/mL: 72%
Aedes aegypti; Aedes aegypti, 0.178 mg/mL (Table 2), read-out: Percentage of repellence of mosquitoes Aedes aegypti landing on the warm body
  pest or weed control at 178 µg/mL: 63%
Aedes aegypti; Aedes aegypti, 0.4 mg/mL (Table 2), read-out: Percentage of repellence of mosquitoes Aedes aegypti landing on the warm body
  pest or weed control at 400 µg/mL: 79%
Aedes aegypti; Aedes aegypti, 0.89 mg/mL (Table 2), read-out: Percentage of repellence of mosquitoes Aedes aegypti landing on the warm body
  pest or weed control at 890 µg/mL: 95%
Aedes aegypti; Aedes aegypti, 2 mg/mL (Table 2), read-out: Percentage of repellence of mosquitoes Aedes aegypti landing on the warm body
  pest or weed control at 2000 µg/mL: 89%
Aedes aegypti; Aedes aegypti, 10 mg/mL (Table 2), read-out: Percentage of repellence of mosquitoes Aedes aegypti landing on the warm body
  pest or weed control at 10000 µg/mL: 96%
Aedes aegypti; lowest doses tested (0.00032% & 0.0016%) (Table 2)
  decrease the number of mosquito landings: two folds
Ixodes ricinus
  pest or weed control at 400 µg/mL: 0%
  pest or weed control at 2000 µg/mL: 23.1%
  pest or weed control at 10000 µg/mL: 100%
Ixodes ricinus; concentration of 1% (Table 10)
  ticks repelled: repel all the ticks

## CC(C)c1ccc2c(c1)OCC(=O)CO2 [compound 1232, isopropyl-2H,4H-1,5-benzodioxepin-3-one, 7-]
Aedes aegypti; [1]
  pest or weed control at 16 µg/mL: 0%
Aedes aegypti; [2]
  pest or weed control at 400 µg/mL: 32%
Aedes aegypti; [3]
  pest or weed control at 10000 µg/mL: 86%
Anopheles gambiae
  pest or weed control at 178 µg/mL: 27%
  pest or weed control at 267 µg/mL: 34%
  pest or weed control at 400 µg/mL: 65%
  pest or weed control at 4470 µg/mL: 91%
  pest or weed control at 10000 µg/mL: 86%

## COc1ccc(C=O)c(OC)c1 [compound 1558, 2,4-dimethoxybenzaldehyde]
Aedes aegypti; [1]
  pest or weed control at 16 µg/mL: 86%
Aedes aegypti; [2]
  pest or weed control at 400 µg/mL: 89%
Aedes aegypti; [3]
  pest or weed control at 10000 µg/mL: 86%
Aedes aegypti; Aedes aegypti
  pest or weed control at 0.04 %: > 75%
Aedes aegypti; [4]
  pest or weed control at 0.0016 %: > 50%
Ixodes ricinus
  pest or weed control at 400 µg/mL: 16.7%
  pest or weed control at 2000 µg/mL: 38.5%
  pest or weed control at 10000 µg/mL: 91.7%

## COc1ccc(CC(=O)O)cc1OC [compound 1564, 2-(3,4-dimethoxyphenyl)acetic acid]
Aedes aegypti; [1]
  pest or weed control at 16 µg/mL: 24%
Aedes aegypti; [2]
  pest or weed control at 400 µg/mL: 69%
Aedes aegypti; [3]
  pest or weed control at 10000 µg/mL: 82%
Anopheles gambiae
  pest or weed control at 178 µg/mL: 42%
  pest or weed control at 267 µg/mL: 58%
  pest or weed control at 400 µg/mL: 9%
  pest or weed control at 4470 µg/mL: 97%
  pest or weed control at 10000 µg/mL: 97%

## COc1ccc(C=O)c(OC(C)=O)c1 [compound 1472, (2-formyl-5-methoxyphenyl) acetate]
Aedes aegypti; [1]
  pest or weed control at 16 µg/mL: 31%
Aedes aegypti; [2]
  pest or weed control at 400 µg/mL: 81%
Aedes aegypti; [3]
  pest or weed control at 10000 µg/mL: 100%
Aedes aegypti; [5]
  pest or weed control at 1 %: > 90%
Aedes aegypti; Aedes aegypti
  pest or weed control at 0.04 %: > 75%
Aedes aegypti; [6]
  mosquito landing within the two minutes of experiments: protect the attractive stimulus for any mosquito landing
Ixodes ricinus
  pest or weed control at 400 µg/mL: 0%
  pest or weed control at 2000 µg/mL: 54.5%
  pest or weed control at 10000 µg/mL: 100%
Ixodes ricinus; concentration of 1% (Table 10)
  ticks repelled: repel all the ticks

## CCOCc1ccc(O)c(OCC)c1 [compound 1482, 2-ethoxy-4-(ethoxymethyl)phenol]
Aedes aegypti; [1]
  pest or weed control at 16 µg/mL: 31%
Aedes aegypti; [2]
  pest or weed control at 400 µg/mL: 82%
Aedes aegypti; [3]
  pest or weed control at 10000 µg/mL: 96%
Aedes aegypti; [5]
  pest or weed control at 1 %: > 90%
Aedes aegypti; Aedes aegypti
  pest or weed control at 0.04 %: > 75%
Ixodes ricinus
  pest or weed control at 400 µg/mL: 30.8%
  pest or weed control at 2000 µg/mL: 66.7%
  pest or weed control at 10000 µg/mL: 100%
Ixodes ricinus; concentration of 1% (Table 10)
  ticks repelled: repel all the ticks

## COc1ccc(C=O)c(OC)c1OC [compound 2267, 2,3,4-trimethoxybenzaldehyde]
Aedes aegypti; [1]
  pest or weed control at 16 µg/mL: 0%
Aedes aegypti; [2]
  pest or weed control at 400 µg/mL: 81%
Aedes aegypti; [3]
  pest or weed control at 10000 µg/mL: 96%
Aedes aegypti; [5]
  pest or weed control at 1 %: > 90%
Aedes aegypti; Aedes aegypti
  pest or weed control at 0.04 %: > 75%
Ixodes ricinus
  pest or weed control at 400 µg/mL: 66.7%
  pest or weed control at 2000 µg/mL: 86.7%
  pest or weed control at 10000 µg/mL: 71.4%

## COc1cc(C(C)=O)ccc1O [compound 1468, 1-(4-hydroxy-3-methoxyphenyl)ethanone]
Aedes aegypti; [1]
  pest or weed control at 16 µg/mL: 64%
Aedes aegypti; [2]
  pest or weed control at 400 µg/mL: 74%
Aedes aegypti; [3]
  pest or weed control at 10000 µg/mL: 90%
Aedes aegypti; [4]
  pest or weed control at 0.0016 %: > 50%
Anopheles gambiae
  pest or weed control at 4470 µg/mL: 59%
  pest or weed control at 10000 µg/mL: 79%

## C=CCOCc1ccc(O)c(OCC)c1 [compound 1479, 4-[(allyloxy)methyl]-2-ethoxyphenol]
Aedes aegypti; [1]
  pest or weed control at 16 µg/mL: 55%
Aedes aegypti; [2]
  pest or weed control at 400 µg/mL: 89%
Aedes aegypti; [3]
  pest or weed control at 10000 µg/mL: 98%
Aedes aegypti; [5]
  pest or weed control at 1 %: > 90%
Aedes aegypti; Aedes aegypti
  pest or weed control at 0.04 %: > 75%
Aedes aegypti; [4]
  pest or weed control at 0.0016 %: > 50%
Ixodes ricinus
  pest or weed control at 400 µg/mL: 66.7%
  pest or weed control at 2000 µg/mL: 100%
  pest or weed control at 10000 µg/mL: 100%
Ixodes ricinus; concentration of 1% (Table 10)
  ticks repelled: repel all the ticks
Ixodes ricinus; concentrations of 0.2% and 1% (Table 10)
  ticks repelled: repelled all ticks
Ixodes ricinus; lowest tested concentration of 0.04% (Table 10)
  fraction of the tested ticks repelled: ⅔

## COc1ccc(C(C)=O)c(OC)c1 [compound 1557, 2,4-dimethoxyacetophenone]
Aedes aegypti; 0.016 mg/mL (Table 3)
  Percentage of repellence of mosquitoes Aedes aegypti landing on the warm body: 81%
Aedes aegypti; 0.4 mg/mL (Table 3)
  Percentage of repellence of mosquitoes Aedes aegypti landing on the warm body: 93%
Aedes aegypti; 10 mg/mL (Table 3)
  Percentage of repellence of mosquitoes Aedes aegypti landing on the warm body: 96%
Ixodes ricinus; 0.4 mg/mL (Table 10)
  Percentage of repellence of ticks Ixodes ricinus on the warm plate: 25.0%
Ixodes ricinus; 2 mg/mL (Table 10)
  Percentage of repellence of ticks Ixodes ricinus on the warm plate: 69.2%
Ixodes ricinus; 10 mg/mL (Table 10)
  Percentage of repellence of ticks Ixodes ricinus on the warm plate: 66.7%

## CC=Cc1cccc(OC)c1OC [compound 1125, 1,2-dimethoxy-3-prop-1-enylbenzene]
Aedes aegypti; [1]
  pest or weed control at 16 µg/mL: 32%
Aedes aegypti; [2]
  pest or weed control at 400 µg/mL: 78%
Aedes aegypti; [3]
  pest or weed control at 10000 µg/mL: 92%
Aedes aegypti; [5]
  pest or weed control at 1 %: > 90%
Aedes aegypti; Aedes aegypti
  pest or weed control at 0.04 %: > 75%
Ixodes ricinus; 1% of stimulus applied (Table 9)
  repellence of ticks Ixodes ricinus: above 90%
Ixodes ricinus
  pest or weed control at 400 µg/mL: 25%
  pest or weed control at 2000 µg/mL: 36.4%
  pest or weed control at 10000 µg/mL: 91.7%

## CC=Cc1ccc(OC)c(OC)c1 [compound 1195, 1,2-dimethoxy-4-prop-1-enylbenzene]
Aedes aegypti; [7]
  pest or weed control at 16 µg/mL: 56%
  pest or weed control at 400 µg/mL: 69%
  pest or weed control at 10000 µg/mL: 100%
Aedes aegypti; Aedes aegypti
  pest or weed control at 0.0016 %: > 50%
  pest or weed control at 1 %: > 90%
Aedes aegypti; [6]
  mosquito landing within the two minutes of experiments: protect the attractive stimulus for any mosquito landing
Ixodes ricinus
  pest or weed control at 400 µg/mL: 46.2%
  pest or weed control at 2000 µg/mL: 76.9%
  pest or weed control at 10000 µg/mL: 100%
Ixodes ricinus; concentration of 1% (Table 10)
  ticks repelled: repel all the ticks
